Measurements taken from US20120107317A1, “USE OF CYTOPLASMIC C-MYC FOR REGULATING IMMUNE RESPONSES” (priority 2010, published 2012).
Like-named read-outs stand apart in the source and are kept apart here.

Columns and labels:
[1] = tested on: BCG-induced c-Myc mRNA expression; assay type: cell-based, human; details: then BCG (M.O.I.=1) 3 hours, vs DMSO
c-Myc [2] = details: cited from earlier work
c-Myc [3] = test: Induction of c-Myc expression by HIV-1 Tat in primary human blood macrophages (RT-PCR, Western blot); assay type: cell-based; details: Tat 2, 4 or 6 hours (mRNA); 20 or 100 ng/ml 24 hours (protein)
Description: Briefly, PBMac were treated with or without Tat ([…]) for indicated time points (2, 4 or 6 hours). Total RNA was extracted for analyzing c-Myc mRNA expression levels by quantitative RT-PCR. In addition, PBMac were treated with HIV-1 Tat (20 or 100 ng/ml) for 24 hours. Cellular proteins were extracted for Western blot analyses to determine protein levels of c-Myc and actin. The level of actin was measured as a control of the amount of proteins loaded.

[4] = biological target: T1, c-Myc (endogenous protein of primary human blood macrophages) (human, UniProt P01106 16-454); test: co-immunoprecipitation with anti-c-Myc antibody from PBMac lysates, Western blot
T1 construct: Endogenous c-Myc in lysates of primary human blood macrophages (PBMac), with or without BCG treatment; also called cytoplasmic c-Myc
Description: Total proteins (200 μg) were extracted from PBMac by IP buffer (10 mM Tris [pH7.4], 1 mM EDTA, 1 mM EGTA, 150 mM NaCl, 0.5% NP-40, 1% Triton X-100, inhibitor cocktails of proteases and phosphatases), and were incubated with 1μg primary antibodies against IκBα(Santa Cruz Biotechnology, USA) or c-Myc (Millipore, USA) for 2 hours at 4° C. and then with 20 μl Protein A/G agarose beads (Santa Cruz Biotechnology, USA) for 1 hour at 4° C. The immunoprecipitates were then washed 6 times with IP buffer. Cytoplasmic and nuclear proteins were extracted from PBMac as previously described (Cheung et al., 2005; Lee et al., 2005). Immunoprecipitated, cytoplasmic (50 μg) or nuclear proteins (10 μg) were analyzed by Western Blot as in our previous reports (Cheung et al., 2005; Lee et al., 2005).

[5] = 10 μM inhibitor 1 hour pretreatment

T1 sequence (P01106 16-454 limits assumed): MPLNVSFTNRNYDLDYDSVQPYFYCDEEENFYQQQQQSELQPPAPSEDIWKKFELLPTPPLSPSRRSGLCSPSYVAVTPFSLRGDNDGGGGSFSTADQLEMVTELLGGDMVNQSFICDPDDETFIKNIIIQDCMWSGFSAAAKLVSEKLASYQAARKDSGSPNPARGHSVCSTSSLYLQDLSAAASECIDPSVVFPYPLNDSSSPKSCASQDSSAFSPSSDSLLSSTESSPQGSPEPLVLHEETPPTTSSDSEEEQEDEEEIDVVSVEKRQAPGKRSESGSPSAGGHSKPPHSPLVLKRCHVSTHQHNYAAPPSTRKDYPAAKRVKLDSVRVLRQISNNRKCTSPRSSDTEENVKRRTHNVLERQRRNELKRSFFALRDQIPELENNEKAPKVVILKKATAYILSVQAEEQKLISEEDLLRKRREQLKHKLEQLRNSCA

COc1cccc(-c2cc(=O)c3ccccc3o2)c1N [PD98059]
level of BCG-induced c-Myc mRNA expression [1, 5]: significantly reduced

O=C(/C=C/c1ccc(O)c(O)c1)OCCc1ccccc1 [CAPE]
level of BCG-induced c-Myc mRNA expression ([1]; 15 μg/ml inhibitor 1 hour pretreatment): did not affect

C[n+]1ccc(-c2c3nc(c(-c4cc[n+](C)cc4)c4ccc([nH]4)c(-c4cc[n+](C)cc4)c4ccc([nH]4)c(-c4cc[n+](C)cc4)c4nc2C=C4)C=C3)cc1 [Cationic Porphyrin TMPyP4]
expression and activity of c-Myc (c-Myc [2]): inhibit both the expression and activity of c-Myc

O=C1c2ccccc2-c2n[nH]c3cccc1c23 [SP600159]
level of BCG-induced c-Myc mRNA expression [1, 5]: significantly reduced

C[S+]([O-])c1ccc(-c2nc(-c3ccncc3)c(-c3ccc(F)cc3)[nH]2)cc1 (stereo not shown) [SB203580]
level of BCG-induced c-Myc mRNA expression [1, 5]: did not affect

B1: HIV-1 Tat: HIV-1 Tat protein used to treat primary human blood macrophages (protein, UniProt P04608 1-86, looked up)
Protein Tat: MEPVDPRLEPWKHPGSQPKTACTNCYCKKCCFHCQVCFITKALGISYGRKKRRQRRRAHQNSQTHQASLSKQPTSQPRGDPTGPKE
c-Myc expression (mRNA and protein) (c-Myc [3]): induces c-Myc expression

B2: ERK1 (member of ERK1/2, endogenous protein of primary human blood macrophages) (enzyme, UniProt P27361 2-379, looked up)
chain: AAAAAQGGGGGEPRRTEGVGPGVPGEVEMVKGQPFDVGPRYTQLQYIGEGAYGMVSSAYDHVRKTRVAIKKISPFEHQTYCQRTLREIQILLRFRHENVIGIRDILRASTLEAMRDVYIVQDLMETDLYKLLKSQQLSNDHICYFLYQILRGLKYIHSANVLHRDLKPSNLLINTTCDLKICDFGLARIADPEHDHTGFLTEYVATRWYRAPEIMLNSKGYTKSIDIWSVGCILAEMLSNRPIFPGKHYLDQLNHILGILGSPSQEDLNCIINMKARNYLQSLPSKTKVAWAKLFPKSDSKALDLLDRMLTFNPNKRITVEEALAHPYLEQYYDPTDEPVAEEPFTFAMELDDLPKERLKELIFQETARFQPGVLEAP
notes: It is split here into its two members
binding result [4]: no binding
